Measurements taken from patent US20120252721A1 (priority 2011, published 2012).

What was measured:
in vitro = format: cell-based, human; conditions: human; Table 1B, cellular viability
Description: (§1) For cytotoxicity evaluation, HPC cells were treated with compounds as described above in the absence of the genotype 2a virus and cellular viability was monitored using the Cell Titer 96 AQueous One Solution Cell Proliferation Assay (Promega). Plates were then read at 490 nm in a Victor^3V 1420 multilabel counter (Perkin Elmer) and CC50 concentrations were determined using Microsoft Excel and XLfit 4.1 software.
as §1, with “H1a-luc or Zluc” for “HPC”, “above” for “above in the absence of the genotype 2a virus”

[1] = system: HCV genotype 3a NS5A within the 1b-replicon; experiment: Luciferase replicon assay, NS5A-intergenotypic stable cell line genotype 3a; format: cell-based; conditions: Hepatitis C virus, read-out: EC50 3a
Excerpt: (§2) The nucleotide sequences of the NS5A region of genotype 2a (GenBank Accession # AB047639), genotype 3a (GenBank Accession #D17763), and genotype 4a (GenBank Accession# DQ418788) were synthesized by an outside vendor. The NS5A region of each of these genotypes included the first 11 amino acids of the protease recognition sequence of genotype 1b, as well as the last 10 amino acids of genotype 1b. The NS5A gene cassettes were excised with site specific restriction endonucleases and ligated into a ZS11-luciferase genotype 1b backbone (backbone contains the genotype 1b NS3 protease, NS4a, NS4b, and NS5b coding regions) with similarly cut restriction enzyme sites. Thus, the newly constructed plasmid contains a genotype 2a-, 3a- or 4a-specific NS5A gene within the 1b-replicon.
(§3) These new intergenotypic plasmids were used to establish stable cell lines. RNA was generated from the NS5A intergenotypic plasmids and used in conjunction with a lipofectin reagent to transfect a cured Huh7 cell line. Transfected cells were selected for with G418. After selection has occurred the stable cell lines were propagated, tested for luciferase activity, and RT-PCR with genotype specific primers (either 1a, 2a, 3a, or 4a). Stable cell lines containing the intergenotypic replicon were then fully sequenced and analyzed for proper expression of NS3, NS5A and NS5B proteins.
(§4) Drug titration analysis was performed using the luciferase replicon assay described herein.
(§5) The HCV luciferase replicon assay measures the ability of a test compound to inhibit HCV replication in cell culture after 3 days of treatment in a human hepatoma cell line (Huh-7) bearing an HCV replicon containing a luciferase-neomycin phosphotransferase fusion gene. The inhibition of HCV replication was measured by quantification of luciferase protein expression. Briefly, Huh-7 cells containing either the HCV genotype 1a H77 strain or genotype 1b Con1 strain subgenomic luciferase replicon (H1a-luc or Zluc, respectively) were grown in DMEM containing glucose, L-glutamine and sodium pyruvate, 10% fetal bovine serum (FBS), 100 IU/mL penicillin, 100 μg/mL streptomycin, 2 mM GlutaMAX, non-essential amino acids and 0.25 (H1a-luc) or 0.5 (Zluc) mg/mL G418. GlutaMAX was obtained from Invitrogen, Corp.; all other media reagents were obtained from Mediatech, Inc. For dose-response testing, the cells were seeded in 96-well plates at 1×10^4 (H1a-luc) or 7.5×10^3 (Zluc) cells/well in a volume of 50 μL, and incubated at 37° C./5% CO2. Three hours after plating, 50 μL of ten 5-fold serial dilutions of compound were added, and cell cultures were incubated at 37° C./5% CO2 for 72 hours. In all cases, Huh-7 cells lacking the HCV replicon served as negative control. To assess luciferase expression, the media/compound was removed from the plates and ONE-glo Luciferase assay reagent (Promega) was added to each well. The assay plates were shaken for 3 minutes at room temperature and luciferase activity for each well was measured with a 1 sec read time on the Victor^3V multilabel counter using a 700 nm cut-off filter (Perkin Elmer). EC50 values were calculated from dose response curves from the resulting best-fit equations determined by Microsoft Excel and XLfit 4.1 software.

[2] = system: HCV genotype 4a NS5A within the 1b-replicon; experiment: Luciferase replicon assay, NS5A-intergenotypic stable cell line genotype 4a; format: cell-based; conditions: Hepatitis C virus, read-out: EC50 4a
Excerpt: as §2, §3, §4, §5

HCV genotype 2a = experiment: Genotype 2a assay (NS5A-intergenotypic luciferase replicon / genotype 2a infectious virus assay); format: cell-based; conditions: Hepatitis C virus, read-out: EC50 2a
Excerpt: as §2, §3, §4
The genotype 2a infectious virus assay measures the ability of a test compound to inhibit HCV replication in cell culture after 5 days of treatment at the time of HCV genotype 2a virus infection of a permissive human hepatoma cell line (HPC cells). The inhibition of HCV replication was measured by quantification of HCV core protein expression by an enzyme-linked immunosorbent assay (ELISA). Briefly, HPC cells were grown in DMEM containing glucose, L-glutamine and sodium pyruvate, 10% FBS, 100 IU/mL penicillin, 100 μg/mL streptomycin, 2 mM GlutaMAX, and non-essential amino acids. GlutaMAX was obtained from Invitrogen, Corp.; all other media reagents were obtained from Mediatech, Inc. For dose-response testing, ninety-six-well plates were seeded with HPC cells at a density of 2.5×10^3 cells/well in a volume of 50 μL, and incubated at 37° C./5% CO2. Three hours after plating, 50 μL of ten 5-fold serial dilutions of compound and 100 μL of genotype 2a virus were added, and cell cultures were incubated at 37° C./5% CO2. In all cases, mock infected HPC cells served as negative control. At 16 hours post treatment and infection, the virus inoculum was removed by aspiration. The cultures were treated at the same final concentrations of drug diluted in media and incubated for 4 additional days at 37° C./5% CO2. Subsequently, the core ELISA was performed as follows. The plates were fixed for 90 seconds with acetone/methanol (1:1, v/v), washed three times with KPL wash solution (KPL, Inc.), blocked for 1 hr at room temperature with TNE buffer containing 10% FBS and then incubated for 2 hr at 37° C. with the anti-HCV core mouse monoclonal antibody (Thermo Scientific) diluted in the same buffer. After washing three times with KPL wash solution, the cells were incubated for 1 hr at 37° C. with an anti-mouse immunoglobulin G-peroxidase conjugate in TNE/10% FBS. After washing as described above, the reaction was developed with O-phenylenediamine (Invitrogen). The reaction was stopped after 30 min with 2 NH2SO4, and absorbance was read at 490 nm in a Victor^3V 1420 multilabel counter (Perkin Elmer) and EC50 concentrations were determined using Microsoft Excel and XLfit 4.1 software.
The HCV luciferase replicon assay measures the ability of a test compound to inhibit HCV replication in cell culture after 3 days of treatment in a human hepatoma cell line (Huh-7) bearing an HCV replicon containing a luciferase-neomycin phosphotransferase fusion gene. […]

[3] = system: HCV genotype 1a H77 strain subgenomic luciferase replicon (H1a-luc); experiment: Luciferase replicon assay, genotype 1a; format: cell-based; conditions: Hepatitis C virus; genotype 1a; read-out: EC50 1a
Description: as §4, §5

[4] = system: HCV genotype 1b Con1 strain subgenomic luciferase replicon (Zluc); experiment: Luciferase replicon assay, genotype 1b; format: cell-based; conditions: Hepatitis C virus
Description: as §5

HCV = conditions: combination therapy (Poynard et al.); cited from earlier work

Row | Compound | CC50 (in vitro) | EC50 [1] | EC50 [2] | EC50 (HCV genotype 2a) | EC50 [3] | EC50 [4] | sustained efficacy, share of patients (HCV)
1 | COC(=O)NC(C(=O)N1CCCC1c1ncc(-c2cc3sc(-c4ccc5[nH]c(C6CCCN6C(=O)C(NC(=O)OC)C(C)C)nc5c4)cc3s2)[nH]1)C(C)C (stereo in doubt) [Compound A176, ((S)-1-{(S)-2-[5-(5-{(S)-2-[1-((S)-2-methoxycarbonylamino-3-methyl-butyryl)-pyrrolidin-2-yl]-3H-benzoimidazol-5-yl}-thieno[3,2-b]thiophen-2-yl)-1H-imidazol-2-yl]-pyrrolidine-1-carbonyl}-2-methyl-propyl)-carbamic acid methyl ester] | 10000 to 75000 nM | 0.1 to 1 nM | 0.1 to 1 nM | 0.1 to 1 nM | 0.1 to 1 nM | < 0.1 nM | 
2 | COC(=O)N[C@H](C(=O)N1CCC[C@H]1c1ncc(-c2ccc(-c3cc4sc(-c5ccc6[nH]c([C@@H]7CCCN7C(=O)[C@H](NC(=O)OC)c7ccccc7)nc6c5)cc4s3)cc2)[nH]1)C(C)C [Compound A194, [(S)-1-((S)-2-{4-[4-(5-{(S)-2-[1-((R)-2-methoxycarbonylamino-2-phenyl-acetyl)-pyrrolidin-2-yl]-3H-benzoimidazol-5-yl}-thieno[3,2-b]thiophen-2-yl)-phenyl]-1H-imidazol-2-yl}-pyrrolidine-1-carbonyl)-2-methyl-propyl]-carbamic acid methyl ester] | > 75000 nM | 0.1 to 1 nM | < 0.1 nM | 1 to 10 nM | 0.1 to 1 nM | < 0.1 nM | 
3 | COC(=O)N[C@H](C(=O)N1CCC[C@H]1c1nc2ccc(-c3csc4c(C#Cc5cnc([C@@H]6CCCN6C(=O)[C@H](NC(=O)OC)c6ccccc6)[nH]5)csc34)cc2[nH]1)C(C)C [Compound A206] | > 75000 nM | < 0.1 nM | < 0.1 nM | < 0.1 nM |  | < 0.1 nM | 
4 | COC(=O)N[C@@H](C(=O)N1CCCC1c1nc2ccc(-c3csc4c(-c5ccc6[nH]c(C7CCCN7C(=O)[C@H](NC(=O)OC)C(C)C)nc6c5)csc34)cc2[nH]1)c1ccccc1 (stereo partly drawn) [Compound A208] | > 75000 nM | < 0.1 nM | < 0.1 nM | < 0.1 nM | < 0.1 nM | < 0.1 nM | 
5 | alpha-interferon and ribavirin |  |  |  |  |  |  | about 40%
